Assay results: patent US20140220680A1, “XENO-FREE AND A FEEDER FREE SELF-RENEWAL EXTRACELLULAR MATRIX FOR LONG-TERM MAINTENANCE OF UNDIFFERENTIATED HUMAN PLURIPOTENT STEM CELLS AND METHOD OF SYNTHESIZING THE SAME” (ROYAN RESEARCH, priority 2013, published 2014)

Key:
[1] = target: Rho-associated Coiled Kinase (ROCK); details: stated with the concentration used; no test described; cited from earlier work
Royan H5 hESCs = test: Plating efficiency (PE) of hESC clumps on coated plates, day 7; assay type: cell-based, human
Method: The Matrigel (MG) was used as a positive control in all experiments. In the first phase, with respect to table 1, the Royan H5 cell line was cultured in CM coated plates (six-well, TPP, 92006). The CM was prepared by either 24 h or 72 h incubation of neurobasal medium (Invitrogen, 21103049) supplemented with L-Gln, β-ME, NEAAs and ITS on human dermal fibroblast (HDFs) feeder layers. The HDFs were inactivated by mitomycin C for 2 h. The mitomycin C was used with a concentration of 10 μg/ml (Sigma-Aldrich, M0503). The feeder cells were cultured at high densities and at low densities in 25 cm^2 T flasks (TPP, 90025) in 4 ml of conditioned medium (160 μl/cm^2). The high density comprised of 50000 cells/cm^2 and the low density comprised of 5000 cells/cm^2. The plates were exposed to CM for either 5 min or 150 min while coating. […]
The plating efficiency (PE) and grading morphology were conducted in nine replications. […] Results were expressed as mean±standard deviation (SD). […] The PE (based on the ratio of undifferentiated […] colonies formed per initially seeded hESCs and hiPSCs clumps) was calculated under phase contrast inverted microscope (CKX 41, Olympus). The cloning efficiency (based on the ratio of ALP-positive colonies formed per initially seeded hESCs and hiPSCs single cells) was calculated by ImageJ software version 1.4. […]

## Y-27632 dihydrochloride monohydrate
[1]
  EC50: 800 nM
Royan H5 hESCs; ROCK inhibitor in MG compared to ROCK inhibitor in culture medium only
  plating efficiency increase: 1.5 to 2 fold
Royan H5 hESCs; ROCKi added to ECM (MG) vs added to medium
  plating and cloning efficiency: increased plating and cloning efficiency
